Measurements: US5434295A (priority 1994, dated 1995)
Read-outs that look alike come from different tables or passages of the source.

Key:
NMDA toxicity in mice = assay: Prevention of NMDA neurotoxicity in mice (neurological scores); format: in vivo, mice (Balb/C); conditions: for maximum improvement of neurological scores: NMDA 60 mg/kg s.c., i.p. or i.v. pretreatment; for neurological scores/symptoms after NMDA toxicity: pretreated mice
Excerpt: Blockade of NMDA toxicity in mice: Subcutaneous injection of NMDA in mice results in a dose-dependent increase in the number, severity and duration of several neurological symptoms, culminating in death at the higher dose range. The symptoms include tail flicks, circling, tremor and convulsions. The ability of various compounds, when administered to mice prior to NMDA, to reduce the number and severity of these symptoms is a considered a measure of their potency in preventing NMDA behavioral toxicity in vivo.
Test drugs were administered intraperitoneally at the stipulated doses in a solution of MCT oil. Each point represents the mean scores of eight mice treated with the drug compared to the same number of control animals receiving the vehicle alone.
Test compounds were administered at a standard dose of 10 mg/kg either intraperitoneally (in MCT oil) or intravenously (in a submicronized emulsion).
Bicyclic compounds of the present invention were tested for their ability to block NMDA toxicity in mice. Balb/C mice received NMDA by subcutaneous injection at a dose of 60 mg/kg which was determined to be the LD20 dose of this substance. Thirty minutes prior to injection of the neurotoxin the animals received either (a) an intravenous injection of the test drug formulated in submicronized emulsion as described in Example 11); (b) an intraperitoneal injection of the test drug dissolved in MCT oil; (c) or the appropriate vehicle alone (control groups). The improvement rate afforded by the test drug was defined as the difference between scores of animals receiving the formulated drug and those receiving the vehicle alone. The doses tested for HU-254, HU-259 and HU-260 ranged from 5 to 30 mg/kg.
At least 6-8 mice were included per test group. The materials were tested in a masked study to preclude bias of the observer of clinical symptoms.
The behavioral scoring method (tabulated above) was used as the basic quantitative procedure for evaluating the level of NMDA or kainic acid neurotoxicity in mice. The neurological clinical status of each animal was calculated by totalling the scores of all signs that were evident throughout the study. Duration of symptoms was also taken into account.
If duration of a neurological system is up to 30 seconds, the score is s-1. Duration between 0.5-3.0 mins, the score is s. Duration longer than 3 mins, the score is s+1.

[1] = tested on: NMDA-induced toxicity in primary cerebral cortical cell cultures; assay: Protection of cortical neurons in culture from NMDA-induced toxicity; format: cell-based; conditions: Rattus norvegicus, NMDA 1000 μM; for inhibition at 10 µM: 10 μM compound
Experimental: Blockage of NMDA toxicity in tissue culture: Neurons can be grown in culture and survive for several weeks. […] The ability of various compounds to prevent the morphological and metabolic changes induced by NMDA is considered a measure of their neuroprotective activity in culture.
The neuroprotective effects of the compounds of the invention were tested on neurons exposed to various excitotoxins in culture. The compounds tested included HU-259, HU-260, HU-270 and HU-271, which were all shown to have NMDA antagonist properties in mice (Example 13).
The test drugs were examined for their ability to protect neurons in culture from toxic effects of agonists of the different glutamate receptor subtypes (agonists of ionotropic and/or metabotropic glutamate receptors), e.g. NMDA, AMPA, kainate and quisqualate. The culture conditions and assay conditions were all performed as described in Eshhar et al. (NeuroReport 5, No. 3, 1993). In brief, primary cerebral cortical cell cultures were prepared from 18-20 day old rat fetuses by enzymatic dissociation. Resulting cell suspensions were plated on confluent cortical glial cell feder layer (prepared 2 weeks earlier by a similar method). Neurons were grown in MEM media containing 0.6% glucose, FUDR/Uridine mixture and N2 supplement (insulin, progesterone, putrescine, selenium and transferrin). Cells at 10 days in culture were exposed to the various toxins either alone, or in the presence of the tested compounds. All exposures were carried out at 37° C. for 20-24 hours before assessing neuronal cell damage and neuroprotectant activity. Cell viability was determined morphologically following neuron specific enolase immunostaining of cells using the ABC biotin-avidin complex method, and determined quantitatively by measuring the extent of mitochondrial activity in living cells using the XTT-based assay. XTT is reduced by mitochondrial dehydrogenase to a soluble colored formazan. The density of color formation (O.D.), which is proportional to mitochondrial activity, was measured by a plate ELISA reader. The extent of neuroprotectant activity is expressed as % of cells rescued by the drugs tested.
Neuroprotectant activity of HU-259 (10 μM)--was assessed using orphological criteria only. Morphological observations (as determined by neuron specific enolase immunostaining) clearly indicated complete neuroprotection (100%).

[2] = tested on: pyramidal cells in CA1 subfield of the hippocampus; assay: Histopathological evaluation of hippocampus in gerbils after bilateral common carotid artery occlusion; format: in vivo, Mongolian gerbils; conditions: drug 30 min after occlusion
Excerpt: Inhibition of ischemic neuronal damage in gerbils: Temporary blockage of the blood supply to the gerbil brain by surgical ligation of the two major arteries (common carotids) results in transient global forebrain ischemia. Temporary global ischemia produces a delayed, selective degeneration of neurons in the hippocampus, a brain structure essential for memory formation. The ability of various compounds to prevent hippocampal cell loss and the attendant memory deficits is considered a measure of their potency as neuroprotectants in ischemic conditions.
Mongolian gerbils (male), 65-70 gr (Tumblebrook Farm) underwent the ischemic procedure while anaesthetised with equithisine.
Common carotid arteries (CCA) were isolated and 3-0 silk suture material was positioned loosely round them. The tips of each loop were tied together, and the suture material was buried beside the trachea. The ventral neck incision was then sutured. In the following day, they were lightly anaesthetised with ether, the neck skin wounds were opened and both CCA were occluded for 10 minutes using small artery clips. During the ischemia and until the animals recovered (regaining righting reflexes), they were maintained in a warm state (36.5°-37.5° C. rectal temperature). […]
Histopathological evaluation. […] Then, 5 μm sections were cut from the area of the dorsal hippocampus, stained with H&E and cresyl violet, and evaluated according to the following system. The number of viable pyramidal cells in the medial, middle and lateral CA1 subfield of the hippocampus were counted under 400X magnification, along 0.4 mm in both sides. […]
Statistics. Neuroclinical appearance was analyzed using Wilcoxon Rank Sum Test. The histopathological evaluation was analyzed using One-Way ANOVA followed by Duncan's Test.
Gerbils were scored for their clinical symptoms following the ischemic insult according to the system described by Rudolphi et al. (Table 4). Each animal was evaluated daily over 4 consecutive days (Day 1 being the day of CCA occlusion). […]

[3] = Cortical neurone, read-out: % of cells rescued from NMDA-induced toxicity

| SMILES | maximum improvement of neurological scores (NMDA toxicity in mice) | neurological scores/symptoms after NMDA toxicity (NMDA toxicity in mice) | inhibition at 10 µM ([1]; morphological criteria only (neuron specific enolase immunostaining), read-out: % of cells rescued from NMDA-induced toxicity / complete neuroprotection) [%] | histopathological damage / survival of hippocampal cells [2] | inhibition at 10 µM [1, 3] [%] | inhibition at 1 µM ([1]; Cortical neurone, 1 μM compound, read-out: % of cells rescued from NMDA-induced toxicity (concentration dependence)) [%] | inhibition at 2 µM ([1]; Cortical neurone, 2 μM compound, read-out: % of cells rescued from NMDA-induced toxicity (concentration dependence)) [%] | inhibition at 5 µM ([1]; Cortical neurone, 5 μM compound, read-out: % of cells rescued from NMDA-induced toxicity (concentration dependence)) [%] |
| --- | --- | --- | --- | --- | --- | --- | --- | --- |
| CCCCCCC(C)(C)c1cc(OC(C)=O)c([C@H]2C=C(C(=O)O)[C@H]3C[C@@H]2C3(C)C)c(OC(C)=O)c1 [(+)-4-[4-DMH-2,6 diacetoxyphenyl]-2-carboxy-6,6-dimethylbicyclo[3.1.1]hept-2-en] | 30-40% | improvement in neurological scores | 100 | significantly decreased compared to control groups | – | – | – | – |
| CCCCCCC(C)(C)c1cc(OC(C)=O)c([C@H]2C=C(C(=O)N(CC)CC)[C@H]3C[C@@H]2C3(C)C)c(OC(C)=O)c1 [HU-270] | 30-40% | decreased neurological symptoms | – | increased survival of hippocampal cells | 0 | – | – | – |
| CCCCCCC(C)(C)c1cc(OC(C)=O)c([C@H]2C=C(C(=O)NCCO)[C@H]3C[C@@H]2C3(C)C)c(OC(C)=O)c1 [HU-271] | 30-40% | decreased neurological symptoms | – | increased survival of hippocampal cells | 100 | 25 | 27 | 68 |
